Experimental data published in patent publication US12052991B2, “Substituted pyridinyloxybenzenes and salts thereof and use thereof as herbicidal agents” (Bayer Aktiengesellschaft, priority 2018, dated 2024).

Assays:
Type in all cases: in vivo
[1] = test system: Echinochloa crus-galli (ECHCG); assay: Herbicidal post-emergence action (Table B1); conditions: rated visually after about 3 weeks, 100% = plants have died, 0% = like control plants
How it was run: (§1)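 Greenhouse pot-grown weeds in sandy loam, sprayed at the one-leaf stage (2–3 weeks post-sowing) with WP or EC formulations plus 0.5% additive at 600 l/ha water, at 1280 or 320 g/ha. Visual % activity versus untreated controls rated about 3 weeks later (100% = dead).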

[2] = test system: Alopecurus myosuroides (ALOMY); assay: Herbicidal post-emergence action (Table B9); conditions: rated visually after about 3 weeks, 100% = plants have died, 0% = like control plants
How it was run: as §1

[3] = test system: Alopecurus myosuroides (ALOMY); assay: Herbicidal pre-emergence action, test C (Table C9); conditions: visual scoring after about 3 weeks, 100% = plants have died, 0% = like control plants
How it was run: (§2)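 Compounds formulated as WP or EC were sprayed onto soil covering freshly sown weed seeds at 600 L/ha water with 0.5% additive, at 1280 or 320 g/ha. Pots were kept in a greenhouse. After about 3 weeks, damage was scored visually as % versus untreated controls (100% = plants dead).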

[4] = test system: Amaranthus retroflexus (AMARE); assay: Herbicidal pre-emergence action, test C (Table C6); conditions: visual scoring after about 3 weeks, 100% = plants have died, 0% = like control plants
How it was run: as §2

[5] = test system: Matricaria inodora (MATIN); assay: Herbicidal pre-emergence action, test C (Table C7); conditions: visual scoring after about 3 weeks, 100% = plants have died, 0% = like control plants
How it was run: as §2

[6] = test system: Digitaria sanguinalis (DIGSA); assay: Herbicidal post-emergence action (Table B10); conditions: visual rating about 3 weeks after treatment, 100% = plants have died, 0% = like control plants
How it was run: as §1

[7] = test system: Matricaria inodora (MATIN); assay: Herbicidal post-emergence action (Table B7); conditions: rated visually after about 3 weeks, 100% = plants have died, 0% = like control plants
Procedure: Seeds of mono- and dicotyledonous weed plants were placed in plastic pots in sandy loam soil (doubly sown with in each case one species of mono- or dicotyledonous weed plants per pot), covered with soil and cultivated in a greenhouse under controlled growth conditions. 2 to 3 weeks after sowing, the test plants were treated at the one-leaf stage. The compounds of the invention, formulated in the form of wettable powders (WP) or as emulsion concentrates (EC), were applied onto the green parts of the plants as aqueous suspension or emulsion with addition of 0.5% additive at a water application rate of 600 liters per hectare (converted). After the test plants had been kept in the greenhouse under optimum growth conditions for about 3 weeks, the activity of the preparations was rated visually in comparison to untreated controls. For example, 100% activity=the plants have died, 0% activity=like control plants. Tables B1 to B12 below show the effects of selected compounds of the general formula (I) according to Table 1 on various harmful plants and an application rate corresponding to 1280 or 320 g/ha, which were obtained by the experimental procedure mentioned above.

[8] = test system: Stellaria media (STEME); assay: Herbicidal pre-emergence action, test C (Table C8); conditions: visual scoring after about 3 weeks, 100% = plants have died, 0% = like control plants
How it was run: as §2

[9] = test system: Poa annua (POAAN); assay: Herbicidal post-emergence action (Table B3); conditions: rated visually after about 3 weeks, 100% = plants have died, 0% = like control plants
How it was run: as §1

[10] = test system: Echinochloa crus-galli (ECHCG); assay: Herbicidal pre-emergence action, test C (Table C1); conditions: dosage 1280 g/ha; visual scoring after about 3 weeks; 100% = plants have died, 0% = like control plants
How it was run: as §2

[11] = test system: Abutilon theophrasti (ABUTH); assay: Herbicidal post-emergence action (Table B5); conditions: rated visually after about 3 weeks, 100% = plants have died, 0% = like control plants
How it was run: as §1

[12] = test system: harmful plants ABUTH, AMARE, ECHCG, LOLRI, MATIN, POAAN, SETVI, STEME, ALOMY, DIGSA, KCHSC and VERPE; assay: Herbicidal post-emergence action, summary of Tables B1-B12; conditions: application rate of 1280 or 320 g of active ingredient per hectare; summary in words
How it was run: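 Greenhouse weeds in sandy loam treated post-emergence at the one-leaf stage, 2–3 weeks after sowing, with WP or EC formulations sprayed with 0.5% additive at 600 L/ha water, 1280 or 320 g/ha. Damage rated visually after about 3 weeks versus untreated controls (0% = like control, 100% = dead).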

[13] = test system: Setaria viridis (SETVI); assay: Herbicidal post-emergence action (Table B4); conditions: 1280 g/ha; rated visually after about 3 weeks; 100% = plants have died, 0% = like control plants
How it was run: as §1

[14] = test system: Amaranthus retroflexus (AMARE); assay: Herbicidal post-emergence action (Table B6); conditions: visual rating about 3 weeks after treatment, 100% = plants have died, 0% = like control plants
How it was run: as §1

[15] = test system: Setaria viridis (SETVI); assay: Herbicidal pre-emergence action, test C (Table C4); conditions: visual scoring after about 3 weeks, 100% = plants have died, 0% = like control plants
How it was run: as §2

[16] = test system: Lolium rigidum (LOLRI); assay: Herbicidal pre-emergence action, test C (Table C2); conditions: visual scoring after about 3 weeks, 100% = plants have died, 0% = like control plants
How it was run: as §2

[17] = test system: Digitaria sanguinalis (DIGSA); assay: Herbicidal pre-emergence action, test C (Table C10); conditions: visual scoring after about 3 weeks, 100% = plants have died, 0% = like control plants
How it was run: as §2

[18] = test system: Bassia scoparia (KCHSC); assay: Herbicidal post-emergence action (Table B11); conditions: visual rating about 3 weeks after treatment, 100% = plants have died, 0% = like control plants
How it was run: as §1

[19] = test system: Veronica persica (VERPE); assay: Herbicidal pre-emergence action, test C (Table C12); conditions: visual scoring vs untreated controls
How it was run: as §2

[20] = test system: Stellaria media (STEME); assay: Herbicidal post-emergence action (Table B8); conditions: visual rating about 3 weeks after treatment, 100% = plants have died, 0% = like control plants
How it was run: as §1

[21] = test system: Poa annua (POAAN); assay: Herbicidal pre-emergence action, test C (Table C3); conditions: visual scoring after about 3 weeks, 100% = plants have died, 0% = like control plants
How it was run: as §2

[22] = test system: harmful plants ABUTH, AMARE, ECHCG, LOLRI, MATIN, POAAN, SETVI, STEME, ALOMY, DIGSA, KCHSC and VERPE; assay: Herbicidal pre-emergence action (test C), summary of Tables C1-C12; conditions: application rate of 1280 or 320 g of active ingredient per hectare; summary in words
How it was run: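 Pre-emergence pot test in sandy loam: WP or EC formulations were sprayed onto the covering soil with 0.5% additive at 600 L/ha water, at 1280 or 320 g/ha. Plants were kept in the greenhouse, and activity was rated visually about 3 weeks later as % versus untreated controls (100% = dead).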

[23] = test system: Bassia scoparia (KCHSC); assay: Herbicidal pre-emergence action, test C (Table C11); conditions: dosage 1280 g/ha, visual scoring vs untreated controls
How it was run: as §2

[24] = test system: Veronica persica (VERPE); assay: Herbicidal post-emergence action (Table B12); conditions: visual rating about 3 weeks after treatment, 100% = plants have died, 0% = like control plants
How it was run: as §1

[25] = test system: Abutilon theophrasti (ABUTH); assay: Herbicidal pre-emergence action, test C (Table C5); conditions: dosage 1280 g/ha; visual scoring after about 3 weeks; 100% = plants have died, 0% = like control plants
How it was run: as §2

| Compound | Post-emergence action against Alopecurus myosuroides (ALOMY) ([2]; 1280 g/ha) | Pre-emergence action against Alopecurus myosuroides (ALOMY) ([3]; dosage 1280 g/ha) | Pre-emergence action against Amaranthus retroflexus (AMARE) ([4]; dosage 320 g/ha) | Pre-emergence action against Amaranthus retroflexus (AMARE) ([4]; dosage 1280 g/ha) | Pre-emergence action against Matricaria inodora (MATIN) ([5]; dosage 320 g/ha) | Pre-emergence action against Matricaria inodora (MATIN) ([5]; dosage 1280 g/ha) | Post-emergence action against Digitaria sanguinalis (DIGSA) ([6]; dosage 1280 g/ha) | Post-emergence action against Matricaria inodora (MATIN) ([7]; 1280 g/ha) | Pre-emergence action against Stellaria media (STEME) ([8]; dosage 320 g/ha) | Pre-emergence action against Stellaria media (STEME) ([8]; dosage 1280 g/ha) | Post-emergence action against Poa annua (POAAN) ([9]; 320 g/ha) | Post-emergence action against Poa annua (POAAN) ([9]; 1280 g/ha) | Post-emergence action against Abutilon theophrasti (ABUTH) ([11]; 320 g/ha) | Post-emergence action against Abutilon theophrasti (ABUTH) ([11]; 1280 g/ha) | herbicidal activity against the harmful plants of Tables B1-B12 in post-emergence treatment [12] | Post-emergence action against Amaranthus retroflexus (AMARE) ([14]; dosage 320 g/ha) | Post-emergence action against Amaranthus retroflexus (AMARE) ([14]; dosage 1280 g/ha) | Pre-emergence action against Setaria viridis (SETVI) ([15]; dosage 320 g/ha) | Pre-emergence action against Setaria viridis (SETVI) ([15]; dosage 1280 g/ha) | Pre-emergence action against Digitaria sanguinalis (DIGSA) ([17]; dosage 1280 g/ha) | further results |
| --- | --- | --- | --- | --- | --- | --- | --- | --- | --- | --- | --- | --- | --- | --- | --- | --- | --- | --- | --- | --- | --- |
| FC(F)c1cc(-c2c(Br)cccc2Oc2ccc(Cl)cn2)on1 [Example 1-53] | 100% | 100% | 100% | 100% | 100% | 100% | 100% | 100% | 100% | 100% | 100% | 100% | 100% | 100% | very good herbicidal activity | 100% | 100% | 100% | 100% | 100% | Post-emergence action against Echinochloa crus-galli (ECHCG) ([1]; 320 g/ha): 100%; Post-emergence action against Echinochloa crus-galli (ECHCG) ([1]; 1280 g/ha): 100%; Pre-emergence action against Alopecurus myosuroides (ALOMY) ([3]; dosage 320 g/ha): 100%; Post-emergence action against Digitaria sanguinalis (DIGSA) ([6]; dosage 320 g/ha): 100%; Pre-emergence action against Echinochloa crus-galli (ECHCG) [10]: 90%; Post-emergence action against Setaria viridis (SETVI) [13]: 100%; Pre-emergence action against Lolium rigidum (LOLRI) ([16]; dosage 320 g/ha): 90%; Pre-emergence action against Lolium rigidum (LOLRI) ([16]; dosage 1280 g/ha): 100%; Post-emergence action against Bassia scoparia (KCHSC) ([18]; dosage 320 g/ha): 90%; Post-emergence action against Bassia scoparia (KCHSC) ([18]; dosage 1280 g/ha): 100%; Pre-emergence action against Veronica persica (VERPE) ([19]; dosage 320 g/ha): 100%; Pre-emergence action against Veronica persica (VERPE) ([19]; dosage 1280 g/ha): 100%; Post-emergence action against Stellaria media (STEME) ([20]; dosage 1280 g/ha): 90%; Pre-emergence action against Poa annua (POAAN) ([21]; dosage 320 g/ha): 100%; Pre-emergence action against Poa annua (POAAN) ([21]; dosage 1280 g/ha): 100%; herbicidal activity against the harmful plants of Tables C1-C12 in pre-emergence treatment [22]: very good herbicidal activity |
| Cc1cc(F)c(-c2cc(C(F)F)no2)c(Oc2ncc(Cl)cc2F)c1 [Example 1-89] | 100% | 100% | 100% | 100% | 90% | 90% | 100% | 100% | 90% | 90% | 100% | 100% | 100% | 100% | very good herbicidal activity | 100% | 100% | 100% | 100% | 100% | Pre-emergence action against Bassia scoparia (KCHSC) [23]: 90%; Post-emergence action against Alopecurus myosuroides (ALOMY) ([2]; 320 g/ha): 100%; Post-emergence action against Veronica persica (VERPE) ([24]; dosage 320 g/ha): 100%; Post-emergence action against Veronica persica (VERPE) ([24]; dosage 1280 g/ha): 100%; Post-emergence action against Matricaria inodora (MATIN) ([7]; 320 g/ha): 100%; Pre-emergence action against Digitaria sanguinalis (DIGSA) ([17]; dosage 320 g/ha): 90%; Post-emergence action against Bassia scoparia (KCHSC) ([18]; dosage 320 g/ha): 90%; Post-emergence action against Bassia scoparia (KCHSC) ([18]; dosage 1280 g/ha): 100%; Pre-emergence action against Veronica persica (VERPE) ([19]; dosage 1280 g/ha): 90%; Post-emergence action against Stellaria media (STEME) ([20]; dosage 320 g/ha): 100%; Post-emergence action against Stellaria media (STEME) ([20]; dosage 1280 g/ha): 100%; Pre-emergence action against Poa annua (POAAN) ([21]; dosage 320 g/ha): 90%; Pre-emergence action against Poa annua (POAAN) ([21]; dosage 1280 g/ha): 100%; herbicidal activity against the harmful plants of Tables C1-C12 in pre-emergence treatment [22]: very good herbicidal activity; Pre-emergence action against Abutilon theophrasti (ABUTH) [25]: 90% |
